Laboratory results as given in patent US9309514B2, “G protein-coupled purinergic receptor Gpr17 mediates orexigenic effects of FoxO1 in AgRP neurons” (THE TRUSTEES OF COLUMBIA UNIVERSITY IN THE CITY OF NEW YORK, priority 2012, dated 2016).

Experiments:
AgRP neurons [1] = assay: Patch-clamp electrophysiology of fluorescently labeled AgRP neurons in brain slices; assay type: cell-based, mice
Description: 300-μm coronal ARH slices were prepared from 6- to 8-week-old mice using ice cold sucrose-based cutting solution (adjusted to pH 7.3) containing (in mM): 10 NaCl, 25 NaHCO3, 195 sucrose, 5 glucose, 2.5 KCl, 1.25 NaH2PO4, 2 Na pyruvate, 0.5 CaCl2, and 7 MgCl2 bubbled continuously with 95% O2 and 5% CO2. Slices were allowed to recover at least 45 minutes at room temperature in recording solution (adjusted to pH 7.3) containing (in mM): 125 NaCl, 5 glucose, 25 NaHCO3, 2.5 KCl, 1.25 NaH2PO4, 2 CaCl2, and 1 MgCl2 bubbled continuously with 95% O2 and 5% CO2 before transferring them to a perfusion chamber for recording. Patch pipettes were pulled to resistances of 7-9 MΩ and filled them with solution (adjusted to pH 7.3) containing 128 K gluconate, 10 KCl, 10 HEPES, 0.1 EGTA, 2 MgCl2, 0.3 Na-GTP, and 3 Mg-ATP. Cells were selected using an upright microscope fitted with fluorescence optics (Nikon) and patched under IR-DIC optics. Electrical access was assessed in the whole-cell recording mode using a small-voltage step-pulse before and at the end of the current clamp recordings. Recordings were discarded in which the series resistance had been >15 MΩ. Current clamp recordings were acquired with no current injection using a MultiClamp 700B amplifier and Clampex data acquisition software (Axon Instruments). Action potential (AP) firing frequency, membrane potential, and AP amplitude using MiniAnalysis (Synaptosoft) were recorded at room temperature and analyzed. Electrophysiological recording to measure mEPSC and mIPSC in brain slices was performed as previously described (Pinto et al., 2004).
The electrophysiological properties of AgRP neurons identified using fluorescent reporters in brain slices from wild-type and Agrp-Foxo1^−/− mice (FIG. 5D-F) were studied. […] Furthermore, insulin suppressed the firing frequency of wild-type cells to ˜35% of basal level, a nearly three-fold reduction. Despite the lower basal firing frequency, insulin further suppressed the firing frequency of knockout neurons, with a 100-fold reduction. Insulin caused a similar reduction in membrane potential in wild-type and knockout cells (˜−20 mV).
Given the favorable metabolic profile of Agrp-Foxo1^−/− mice, experiments were designed to identify FoxO1 targets that mediate its effects and are readily targetable by chemical means. […] Next, Gpr17 regulation in ARH punch biopsies from fasted and refed mice was examined. […] To investigate the function of Gpr17 in AgRP neurons, the electrophysiological properties of fluorescently labeled AgRP neurons in response to the Gpr17 antagonist, cangrelor were tested. […] Therefore, inhibition of Gpr17 can affect the electrical activity of AgRP neurons in an insulin-mimetic fashion, supporting our hypothesis.

mice [2] = assay: Food intake after ICV (3rd ventricle) injection; assay type: in vivo
Text: ELISA for leptin, insulin, and glucagon measurements (Millipore), and colorimetric assays for plasma free fatty acids and glycerol (Wako) were used.
The effect of delivering cangrelor into the 3rd ventricle of mice on food intake was studied.

mice [3] = assay: Glucose tolerance test / blood glucose after Gpr17 agonist administration; assay type: in vivo; conditions: 6 hr fast, test 20 minutes after administration (FIG. 12C)
Description: FIG. 12A-12D. […] (A) Satiated mice were injected with saline or Gpr17 agonist LTD4 (n=5-7). Food intake was monitored for the following time course. (B) Locomotor activity counts of satiated mice during daytime within 1.5 hours following administration of Gpr17 agonist LTD4 (n=6). (C) After fasting for 6 hrs, saline or LTD4 were administered to the mice (n=6-7). Glucose tolerance test was performed 20 minutes after the administration. […] Glucose was measured before or 20 minutes after the administration.

AgRP neurons [4] = assay: Immunohistochemistry of pSTAT3, pS6 and pAkt in AgRP or POMC neurons after delivery into the 3rd ventricle
Description: Stereotactic manipulations in 3-4 month-old C57BL/6 mice were performed. Cannulae were placed and allowed 1 week for recovery (−1.8 mm anterior and 0 mm lateral to bregma and 5.3 mm below the skull surface). Correct positioning of the cannulae was verified by monitoring drinking activity after angiotensin injection. […] For immunohistochemistry studies, mice 4-5 hr were perfused after refeeding.
To test whether Gpr17 function affects ARH hormonal signaling in vivo, cangrelor was delivered directly into the 3rd ventricle of mice after an overnight fast and the co-localization of pSTAT3, pS6, and pAkt was determined in either POMC or AgRP neurons, identified by fluorescent reporter, after refeeding.

Neuro2A (N2A) cells = assay: Insulin signaling (pAkt western blot) in wild type N2A cells treated with or without cangrelor; assay type: cell-based; conditions: serum starved overnight, stimulated with insulin
Description: FIG. 14. Neuro2A (N2A) cells are a suitable model for studying the molecular mechanisms of Gpr17 signaling. Wild type N2A cells (treated with or without cangrelor) were serum starved overnight and stimulated with insulin. Insulin signaling activity was gauged by measuring pAkt by western blot. N2A cells express minimal endogenous Gpr17.
More experiments were conducted to study the in vivo regulation of Gpr17 expression by FoxO1. It was discovered that Knocking out FoxO using Synapsin-Cre in mediobasal hypothalamus (MBH) caused a concomitant reduction of Gpr17, further showing that Gpr17 is the endogenous target of FoxO. FIG. 13, panel A. Moreover, Gpr17 expression was elevated in the hippocampus of insulin resistant diabetic GIRKO mice. FIG. 13, panel B. Further studies of Gpr17 expression showing that it contributes to the causality of diabetes, were conducted using Neuro2A (N2A) cells that express minimal endogenous Gpr17. Wild type N2A cells (treated with or without cangrelor) were serum starved overnight and then stimulated with insulin. Insulin signaling activity was gauged by measuring pAkt by western blot. […] FIG. 14.

[5] = in vivo; cited from earlier work
platelet = conditions: 4 μg/kg per minute IV, in approximately 70% of patients after 15 min; cited from earlier work
mouse Gpr17 = assay: siRNA knockdown of Gpr17 in Gpr17-mCherry stable line (diminished mCherry signal); assay type: cell-based; conditions: Gpr17-mCherry stable line transfected with RNAi construct
Text: Seven siRNA sequences were designed based on the gene sequence of mouse Gpr17. DNA oligomers were ligated into a MSCV-P2Gm vector and verified by sequencing. The correct clones were used for further evaluation of the effectiveness of each RNAi construct. Gpr17-mCherry-stable line was transfected with each of the seven constructs. The effectiveness of RNAi was scored by the diminished mCherry signal in cells. […] The resultant adenovirus expresses RNAi upon Cre-dependent recombination. Seven oligomer sequences to generate Gpr17 RNAi. The 7 oligomers were ligated into the vector (MSCV-P2Gm) to generate RNAi specific for Gpr17 gene. The sequences are provided as following. The common adaptor sequence is provided, and the targeting siRNA (specific for mouse Gpr17) sequence is highlighted with underline.
In another series of experiments, siRNA sequences that knock down Gpr17 were identified. Seven candidate siRNA sequences conjugated to Gfp (green) and directed against mouse Gpr17 were cloned into a vector and their ability to inhibit Gpr17 expression was determined in Gpr17-mCherry stable line by their effectiveness in diminishing red fluorescence. Seven candidate sequences against mouse Gpr17 were cloned into vector. The resultant adenovirus expresses RNAi upon Cre-dependent recombination. Various degrees of knockdown of Gpr17 were achieved using siRNA.

[6] = insulin, wild-type AgRP neurons
[7] = delivered into 3rd ventricle after overnight fast, determined after refeeding
[8] = cangrelor treatment (90 nM), same neurons before and after
[9] = 3rd ventricle, overnight fast, refeeding, in a subset of AgRP neurons

For “insulin: anorexigenic hormone applied to AgRP neurons in brain slices”, the “fold reduction of firing frequency” value (AgRP neurons [1]; insulin, Agrp-Foxo1−/− (knockout) AgRP neurons) was 100 fold, the “firing frequency relative to basal level” value (AgRP neurons [1]; [6]) was ~35 % of basal level and the “fold reduction of firing frequency” value (AgRP neurons [1]; [6]) was “three”. The “reduction in membrane potential” value (AgRP neurons [1]; insulin, wild-type and knockout cells) was ~−20 mV.

In the case of `CCCCC/C=C\C\C=C/C=C/C=C/[C@@H](SC[C@H](N)C(=O)NCC(=O)O)[C@@H](O)CCCC(=O)O` [LTD4], the food intake (mice [2]; satiated mice injected with saline or LTD4 (FIG. 12A)) is reported as “increases food intake”, the “glucose tolerance test / neuronal regulation of glucose homeostasis” value (mice [3]) is reported as “impairs neuronal regulation of glucose homeostasis” and the “pSTAT3 content in AgRP neurons” value (AgRP neurons [4]; [7]) is reported as “decreased”.

For `CSCCNc1nc(SCCC(F)(F)F)nc2c1ncn2[C@@H]1O[C@H](COP(=O)(O)OP(=O)(O)C(Cl)(Cl)P(=O)(O)O)[C@@H](O)[C@H]1O` [cangrelor, [dichloro-[[[(2R,3S,4R,5R)-3,4-dihydroxy-5-[6-(2-methylsulfanylethylamino)-2-(3,3,3-trifluoropropylsulfanyl)purin-9-yl]oxolan-2-yl]methoxy-hydroxyphosphoryl]oxy-hydroxyphosphoryl]methyl]phosphonic acid], the “firing frequency of AgRP neurons” value (AgRP neurons [1]; [8]) was “significantly reduced”, the “membrane potential of AgRP neurons” value (AgRP neurons [1]; [8]) was “lower” and the “food intake during refeeding” value (mice [2]; Agrp-Foxo1−/− mice, overnight fast, cangrelor into 3rd ventricle) was “completely unaffected”. The “insulin signaling (pAkt by western blot)” value (Neuro2A (N2A) cells) was “minimal effect”, the plasma half-life [5] was “three to six” and the platelet inhibition (platelet) was 100%. For the same molecule, the “pAkt and pS6 in POMC neurons” value (AgRP neurons [4]; 3rd ventricle, overnight fast, refeeding) was “without effecting detectable changes”, the “pAkt in AgRP neurons” value (AgRP neurons [4]; [9]) was “increased” and the “pS6 in AgRP neurons” value (AgRP neurons [4]; [9]) was “increased”. For the same molecule, the “pSTAT3 content in AgRP neurons” value (AgRP neurons [4]; [7]) was “specifically and dramatically increased” and the “pSTAT3 content in POMC neurons” value (AgRP neurons [4]; [7]) was “not in POMC neurons”.

B1: SEQ ID NO. 9: oligomer ligated into MSCV-P2Gm vector to generate RNAi specific for mouse Gpr17 (nucleic acid)
DNA: TGCTGTTGACAGTGAGCGAAACTGTACCGGGAGAAGGCCTTAGTGAAGCCACAGATGTAAGGCCTTC
In the case of B1, the “effectiveness in knocking down Gpr17 expression (diminishing red fluorescence)” value (“effectiveness” for short) (mouse Gpr17) is reported as “most effective”.

B2: SEQ ID NO. 7: oligomer ligated into MSCV-P2Gm vector to generate RNAi specific for mouse Gpr17 (nucleic acid)
DNA: TGCTGTTGACAGTGAGCGCCCGGATCACCTCCTGCCTCACTAGTGAAGCCACAGATGTAGTGAGGCAGGAGGTGATCCGGTTGCCTACTGCCTCGGA
For B2, the “effectiveness” value (mouse Gpr17) was “most effective”.

B3: SEQ ID NO. 6: oligomer ligated into MSCV-P2Gm vector to generate RNAi specific for mouse Gpr17 (nucleic acid)
DNA: TGCTGTTGACAGTGAGCGATGGCTTCCTCTTCTATCTGAATAGTGAAGCCACAGATGTATTCAGATAGAAGAGGAAGCCAGTGCCTACTGCCTCGGA
For B3, the “effectiveness” value (mouse Gpr17) was “most effective”.
